Measurements taken from PMC6968641, “N-monoarylacetothioureas as potent urease inhibitors: synthesis, SAR, and biological evaluation” (Journal of Enzyme Inhibition and Medicinal Chemistry, 2019).
Converted amounts (≈) assume the structure as drawn. Read-outs that look alike come from different tables or passages of the source.

Tests used:
[1] = biological target: T1, H. pylori urease (Helicobacter pylori, UniProt P69996); test: Urease inhibition, extracted H. pylori urease (indophenol method); type: biochemical; settings: for IC50: extracted H. pylori urease
T1 construct: endogenous in cells; host or cells: H. pylori ATCC 43504; sonicated, supernatant desalted on Sephadex G-25 (crude extract)
T1 sequence (P14916 whole entry): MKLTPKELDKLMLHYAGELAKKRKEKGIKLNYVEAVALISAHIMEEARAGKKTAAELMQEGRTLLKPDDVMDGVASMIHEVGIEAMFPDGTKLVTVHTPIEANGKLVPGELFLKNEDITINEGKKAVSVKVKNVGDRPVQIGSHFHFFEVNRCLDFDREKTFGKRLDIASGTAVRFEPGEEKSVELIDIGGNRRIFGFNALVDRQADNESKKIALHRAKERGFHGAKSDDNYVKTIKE
T1 sequence (P69996 whole entry): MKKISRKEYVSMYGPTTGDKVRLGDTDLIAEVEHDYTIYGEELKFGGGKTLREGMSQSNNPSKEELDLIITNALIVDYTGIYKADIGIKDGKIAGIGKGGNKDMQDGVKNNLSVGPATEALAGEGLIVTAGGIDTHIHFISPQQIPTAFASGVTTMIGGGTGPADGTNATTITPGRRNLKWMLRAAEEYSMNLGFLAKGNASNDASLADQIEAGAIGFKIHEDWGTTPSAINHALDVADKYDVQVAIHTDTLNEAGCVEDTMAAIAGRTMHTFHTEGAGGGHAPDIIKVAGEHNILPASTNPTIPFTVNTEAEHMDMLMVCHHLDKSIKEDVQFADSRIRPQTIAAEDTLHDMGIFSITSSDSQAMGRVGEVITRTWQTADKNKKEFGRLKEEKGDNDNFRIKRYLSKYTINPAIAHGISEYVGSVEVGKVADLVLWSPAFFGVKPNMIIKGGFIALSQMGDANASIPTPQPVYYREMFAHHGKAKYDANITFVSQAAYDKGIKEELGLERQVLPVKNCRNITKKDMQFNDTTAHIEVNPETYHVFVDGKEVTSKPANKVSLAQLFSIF
Procedure: For urease inhibition assays, 50 mL broth cultures (2.0 × 10^8 CFU/mL) were centrifuged (5000×g, 4 °C) to collect the bacteria, and after washing twice with phosphate-buffered saline (pH 7.4), the H. pylori precipitation was stored at –80 °C for 8 h, and then was returned to room temperature, and after addition of 3 mL of distilled water and protease inhibitors, sonication was performed for 60 s. Following centrifugation (15,000×g, 4 °C), the supernatant was desalted through Sephadex G-25 column (PD-10 columns, Amersham Pharmacia Biotech, Uppsala, Sweden). The resultant crude urease solution was added to an equal volume of glycerol and stored at 4 °C until use in the experiment.
Urease activity was determined in the 96-well assay plate by measuring ammonia production using the indophenol method as described by Weatherburn[20]. Briefly, to each well, 50 µL of urea (10 mM) in phosphate buffer solution was added in a mixture of 25 µL (10 U) of H. pylori urease and 25 µL of the test compound, which was incubated at 37 °C for 0.5 h. Fifty µL of phenol reagent (containing 127 mM phenol and 0.168 mM sodium nitroprusside) and 50 µL of alkali reagent (containing 125 mM NaOH and 0.168 mM NaOCl) were added in turn. The resulted mixture was incubated at 37 °C for another 0.5 h for colouration developing. The increasing absorbance was measured at 630 nm after 50 min using a microplate reader (Molecular Devices, San Jose, CA). Percentage inhibitions were calculated from the following formula (Equation (1)). Experiments were performed in triplicate and AHA was used as reference drug, and the IC50 value was determined as the concentration of compound that give 50% inhibition of maximal activity. As for the urease assay of intact cells, 25 µL (10 U) of H. pylori urease was replaced by 25 µL of cell suspension (4.0 × 10^7 CFU/mL).

[2] = biological target: T2, urease in intact H. pylori cell (Helicobacter pylori, UniProt P69996); test: Urease inhibition in intact H. pylori cell (indophenol method); type: cell-based
T2 construct: H. pylori urease was replaced by 25 µL of cell suspension (4.0 × 10^7 CFU/mL); endogenous in cells; host or cells: intact H. pylori ATCC 43504 cells
T2 sequence (P69996 whole entry): as above
T2 sequence (P14916 whole entry, further chain): as the sequence (P14916 whole entry) above

[3] = system: H. pylori; test: Minimum inhibitory concentration, broth microdilution (CLSI); type: cell-based, Helicobacter pylori (ATCC 43504)
Procedure: H. pylori (ATCC 43504; […] The minimum inhibitory concentration (MIC) values were determined using the broth microdilution protocol according to the methods of the Clinical and Laboratory Standards Institute (CLSI)[21].

[4] = biological target: T3, Jack bean urease (Canavalia ensiformis, UniProt P07374); test: Ligand affinity by surface plasmon resonance (SPR); type: binding; settings: for kon: pH 7.4; for koff: immobilised urease, PBS pH 7.4
T3 construct: purchased
T3 sequence (P07374 whole entry, looked up): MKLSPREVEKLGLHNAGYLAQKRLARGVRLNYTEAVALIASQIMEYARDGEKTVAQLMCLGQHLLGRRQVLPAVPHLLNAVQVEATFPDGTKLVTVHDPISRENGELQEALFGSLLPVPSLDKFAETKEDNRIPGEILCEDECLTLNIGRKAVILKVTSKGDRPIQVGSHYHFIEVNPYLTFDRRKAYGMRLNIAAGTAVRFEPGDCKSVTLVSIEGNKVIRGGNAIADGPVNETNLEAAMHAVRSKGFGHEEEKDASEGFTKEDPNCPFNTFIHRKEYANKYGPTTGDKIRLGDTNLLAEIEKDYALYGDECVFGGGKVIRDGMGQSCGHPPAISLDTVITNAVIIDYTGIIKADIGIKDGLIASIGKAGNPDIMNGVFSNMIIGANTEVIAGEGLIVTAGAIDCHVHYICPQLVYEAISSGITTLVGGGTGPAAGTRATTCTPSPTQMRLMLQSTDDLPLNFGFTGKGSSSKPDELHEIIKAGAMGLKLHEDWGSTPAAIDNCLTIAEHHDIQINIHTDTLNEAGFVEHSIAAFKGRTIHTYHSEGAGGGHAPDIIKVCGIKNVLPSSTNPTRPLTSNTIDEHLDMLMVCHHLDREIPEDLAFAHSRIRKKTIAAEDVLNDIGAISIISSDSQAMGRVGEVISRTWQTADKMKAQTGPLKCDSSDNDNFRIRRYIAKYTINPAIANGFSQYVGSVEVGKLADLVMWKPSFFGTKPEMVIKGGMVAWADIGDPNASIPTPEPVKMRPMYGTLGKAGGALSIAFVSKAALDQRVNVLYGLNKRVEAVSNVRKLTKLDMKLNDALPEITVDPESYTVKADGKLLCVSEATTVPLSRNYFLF
Procedure: The binding kinetics of selected compounds were assayed via surface plasmon resonance (SPR) using an OPEN SPR instrument (Nicoya Lifesciences, Kitchener, Canada). First, urease dissolved (50 µg/mL) in PBS buffer (1 mM KH2PO4, 155 mM NaCl, 3 mM Na2HPO4-12H2O, pH 7.4), was immobilised to a CM5 chip using a standard amine coupling procedure. Then, SPR measurements were carried out in PBS, and stock solutions were diluted in the same buffer. Data were collected with OpenSPR control software. Experiments were performed by monitoring the refractive index changes as a function of time under constant flow rate of 20 µL/min. The relative amount of inhibitor bound to the urease was determined by measuring the net increase in refractive index over time compared to control running buffer. There is an inline subtraction of reference surface during the run. This change is usually reported in response units (RU). Sensograms were processed and analysed using TraceDrawer software. The binding curves were fit to determine the equilibrium dissociation constant (KD).
In the present paper, the pure Jack bean urease from commercial was used for this assay because of non-availability of pure H. pylori urease. […] For efficient and tight ligand binding, the rate constant koff is of particular interest, because koff has a potential to differentiate indistinguishable compounds with similar affinities.

[5] = biological target: T3, Jack bean urease; test: Enzyme kinetic study (indophenol method); type: biochemical; settings: for Type of inhibition: Jack bean urease; for Ki': dissociation constant of urease-urea-inhibitor complex
Procedure: Based on the indophenol method, the velocity of ammonia production (V) was measured in the presence of concentration gradients of urea ([S]) for every specific concentration of selected compounds ([I]). Nonlinear fitting curves to data of V and [S] were used to determine the type of enzyme inhibition based on the general kinetics equation (Equation (1)). Subsequently, the resulted fitting constants ( Km/Vmax(1+[I]/Ki) or 1/Vmax(1+[I]/Ki′) ) and [I] were linearly fitted to give kinetic parameters Ki and Ki', respectively. The experimental assay was performed against a pure urease (Jack bean urease) for the consideration of precision. (1) V=Vmax[S]/Km(1+[I]/Ki)+(1+[I]/K^′i)[S]
Mazzei et al. confirmed that urease shared the mechanism of catalysis and inhibition regardless of the biological sources[27]^,[28]. For excluding the possible interference, a pure urease (Jack bean urease) was therefore used for kinetic assays. As an example, Figure 2 describes the preincubation-time dependence of urease inhibition by b19. The suppressed urease activity maintained at relatively constant values with the increasing preincubation time under different concentrations of b19, resulting in nearly equal IC50 values.
Similarly, kinetic parameters ( Ki and Ki' ) and inhibition types of other compounds were also determined and are shown in Table 3.

[6] = Cytotoxicity MTT assay, L-02; type: cell-based; settings: human, L-02 cells (normal hepatic cell line), 25 μg/mL
Procedure: (§1) The stock solutions of the selected compounds (250 µg/mL, in PBS) were prepared in medium. L-02 cells and P69 cells were grown in medium (90% RPMI-1640 medium, 10% foetal bovine serum, 1% penicillin/streptomycin) and maintained at 37 °C in a humidified atmosphere containing 5% CO2, respectively. Cells were seeded in 96-well cell culture plates. On the day when seeding, the cells were exposed to 250 µg/mL of compounds and further cultured for 72 h at 37 °C. Cell proliferation was then determined using the thiazolyl blue tetrazolium bromide (MTT) assay.

[7] = Cytotoxicity MTT assay, P69; type: cell-based; settings: human, P69 cells (normal prostate cell line), 25 μg/mL
Procedure: as §1

[8] = Helicobacter pylori, pH=4.0, read-out: MIC pH=4.0
[9] = Helicobacter pylori, pH=7.0, read-out: MIC pH=7.0

SMILES | IC50 ([1]; IC50 Extracted urease) | melting point | IC50 [2] | viability at 72 h, 25 µg/mL [6] | viability at 72 h, 25 µg/mL [7] | also measured
Cc1ccccc1CC(=O)NC(N)=S [b18] | 46.2 ± 1.8 µM | 135.6 to 137.1 °C |  |  |  | 
CC(=O)NO [AHA, acetohydroxamic acid, reference compound] |  |  |  |  |  | IC50 ([1]; read-out: IC50 Extracted urease): 27.2 ± 0.7 µM; IC50 ([2]; intact H. pylori cell suspension, read-out: IC50 Urease in intact cell): 171 ± 9 µM; MIC ([3]; pH=4.0, read-out: MIC pH=4.0): 16.0 µM (≈ 1.2 µg/mL); MIC ([3]; pH=7.0, read-out: MIC pH=7.0): >64.0 µM
NC(=S)NC(=O)Cc1cccc(Br)c1 [b2] | 58.4 ± 4.3 µM | 207.4 to 208.8 °C |  |  |  | 
NC(=S)NC(=O)Cc1ccc([N+](=O)[O-])cc1 [b22] | 155 ± 16 µM | 199.1 to 200.9 °C |  |  |  | 
NC(=S)NC(=O)Cc1ccc(O)cc1 [b8] | 9.93 ± 0.9 µM | 177.1 to 178.3 °C | 52.5 ± 3.9 µM | 92.1% | 94.6% | MIC [3, 8]: 8 µM (≈ 1.68 µg/mL); MIC [3, 9]: 64 µM (≈ 13.5 µg/mL); Kd [4]: 311 ± 10.3 nM; kon [4]: 9.38e+06 M⁻¹ s⁻¹; koff ([4]; pH 7.4, SPR): 0.00292 s⁻¹; Ki [5]: 2540 nM; Type of inhibition [5]: Reversible; Ki' [5]: 11.3 µM
Cc1ccc(CC(=O)NC(N)=S)cc1 [b16] | 5.2 ± 0.32 µM | 171.2 to 172.5 °C | 35.7 ± 1.7 µM | 114% | 89.9% | MIC [3, 8]: 2 µM (≈ 0.417 µg/mL); MIC [3, 9]: 64 µM (≈ 13.3 µg/mL); Kd [4]: 162 ± 3.8 nM; kon [4]: 501000 M⁻¹ s⁻¹; koff ([4]; pH 7.4, SPR): 0.081 s⁻¹; Ki [5]: 1280 nM; Type of inhibition [5]: Reversible; Ki' [5]: 2.84 µM
COc1ccc(CC(=O)NC(N)=S)cc1OC [b10] | 24.2 ± 0.6 µM | 146.3 to 147.6 °C | 207 ± 16 µM | 108% | 95.3% | 
NC(=S)NC(=O)C(c1ccccc1)c1ccccc1 [b25] | 318 ± 24 µM | 169.5 to 172.7 °C |  |  |  | 
COc1ccccc1CC(=O)NC(N)=S [b17] | 55.7 ± 3.1 µM | 135.4 to 136.9 °C |  |  |  | 
COc1ccc(CC(=O)NC(N)=S)cc1 [b11] | 16.3 ± 1.2 µM | 143.5 to 144.7 °C | 98.3 ± 5.9 µM | 97% | 87.5% | MIC [3, 8]: 32 µM (≈ 7.18 µg/mL); MIC [3, 9]: > 64 µM; Kd [4]: 667 ± 13.7 nM; kon [4]: 572000 M⁻¹ s⁻¹; koff ([4]; pH 7.4, SPR): 0.0381 s⁻¹; Ki [5]: 3940 nM; Type of inhibition [5]: Reversible; Ki' [5]: 12.7 µM
NC(=S)NC(=O)Cc1ccc(Cl)cc1Cl [b21] | 67.7 ± 4.3 µM | 166.6 to 167.2 °C |  |  |  | 
NC(=S)NC(=O)Cc1ccccc1Cl [b13] | 54.2 ± 4.8 µM | 148.8 to 151.2 °C |  |  |  | 
NC(=S)NC(=O)Cc1ccc(Cl)cc1 [b19] | 0.16 ± 0.05 µM | 184.1 to 186.6 °C | 3.86 ± 0.1 µM | > 93% | > 93% | fold more potent than AHA, extracted urease ([1]; ratio of IC50 values vs AHA): 170 fold; fold more potent than AHA, urease in intact cell ([2]; ratio of IC50 values vs AHA): 44 fold; MIC [3, 8]: 0.5 µM (≈ 0.114 µg/mL); MIC [3, 9]: 32 µM (≈ 7.32 µg/mL); Kd [4]: 4.5 ± 0.16 nM; koff ([4]; SPR): 1.73 × 10^–3 ± 2.57 × 10^–5 s^–1; kon [4]: 3.82e+06 M⁻¹ s⁻¹; koff ([4]; pH 7.4, SPR): 0.0016 s⁻¹; Ki [5]: 40 nM; Type of inhibition [5]: Reversible; preincubation-time dependence of urease inhibition ([5]; different preincubation times and concentrations): time-independent; Ki' [5]: 0.16 µM; inhibition mechanism ([5]; from Ki and Ki'): mixed competitive
NC(=S)NC(=O)Cc1ccc(Cl)c(Cl)c1 [b3] | 63 ± 4.6 µM | 202.1 to 203.4 °C |  |  |  | 
